Source: ChEMBL document CHEMBL1150187, “Two new natural azafluorene alkaloids and a cytotoxic aporphine alkaloid from Polyalthia longifolia” (1990)
Converted amounts (≈) assume the structure as drawn. The source made the active and inactive calls. The rule behind the calls is not given here.

Columns and labels:
Type in all cases: functional
[1] = tested on: P388; assay: Cytotoxicity against mouse P388 cells
[2] = tested on: L1210; assay: Cytotoxicity against mouse L1210 cells
[3] = tested on: A549; assay: Cytotoxicity against human A549 cells
[4] = tested on: KB; assay: Cytotoxicity against human KB cells
[5] = tested on: HCT-8; assay: Cytotoxicity against human HCT8 cells
[6] = read-out: ED50 (the source's name)

SMILES	Activity [1]	Activity [2]	Activity [3]	Activity [4]	Activity [5]	EC50 [1, 6] [µg/mL]	EC50 [2, 6] [µg/mL]	EC50 [3, 6] [µg/mL]	EC50 [4, 6] [µg/mL]	EC50 [5, 6] [µg/mL]
COc1c(O)cc2c(c1OC)-c1nccc(C)c1C2=O	inactive	inactive	inactive	inactive	inactive	–	–	–	–	–
O[C@H]1c2ccccc2-c2c3c(cc4c2[C@@H]1NCC4)OCO3	inactive	inactive	inactive	inactive	inactive	–	–	–	–	–
COc1cc2c(cc1OC)-c1nccc(C)c1C2=O	inactive	inactive	inactive	inactive	inactive	–	–	–	–	–
O=C1c2ccccc2-c2c3c(cc4ccnc1c24)OCO3 [LIRIODENINE]	–	–	–	–	–	0.57 (≈ 2.07 µM)	2.33 (≈ 8.46 µM)	0.72 (≈ 2.62 µM)	1 (≈ 3.63 µM)	0.7 (≈ 2.54 µM)
C[N+]1([O-])CCc2cc3c(c4c2[C@H]1[C@@H](O)c1ccccc1-4)OCO3 (stereo not given in full)	inactive	inactive	inactive	inactive	inactive	–	–	–	–	–
COc1cc2c(cc1O)C(=O)c1c(C)ccnc1-2	inactive	inactive	inactive	inactive	inactive	–	–	–	–	–
